# Experimental data taken from US6664241B2, “Water-soluble amide derivatives of polyene macrolides and preparation and uses thereof” (Micrologix Biotech Inc., priority 2000, dated 2003).
# Like-named read-outs stand apart in the source and are kept apart here.
# Tests used:
# [1] = system: C. albicans; test: Minimum Inhibitory Concentrations (MICs) against C. albicans, NCCLS M27-A broth dilution; type: cell-based; conditions: Candida albicans, read-out: MIC
# Method: For each compound synthesized, Minimum Inhibitory Concentrations (MICs) against C. albicans were determined as described in Reference Method for Broth Dilution Antifungal Susceptibility Testing of Yeasts, Approved Standard, NCCLS document M27-A (ISBN 1-56238-328-0), NCCLS, 940 West Valley Road, Suite 1400, Wayne, Pa. 19087, 1997.
# [2] = Maximum non-lethal dose (NLD), single intravenous dose in mice; type: in vivo, Swiss-Webster male mice; conditions: test compounds as aspartate salts in 5% mannitol, AmB as FUNGIZONE
# Procedure, shortened: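 Groups of four male Swiss-Webster mice received one intravenous dose of aspartate salt in 5% mannitol/water, freshly prepared. Doses were raised or lowered after each round until the maximum non-lethal dose was found.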
# [3] = Two week range-finding toxicity study in mice; type: in vivo, CD-1 mice; conditions: both sexes, CD-1, mouse, in vivo, iv, intravenous once daily on days 1 to 5 and 8 to 12
# Method: A variety of the compounds synthesized as described in Section 5, supra, were tested in various in vivo assays, as described below. The results of the various assays are provided in TABLE 3, presented at the end of this section. In all of the in vivo assays described, the test compounds, in the form of the aspartate salts, were formulated in an aqueous vehicle (5% mannitol in sterile water; OSMITROL, Baxter Healthcare, Deerfield, Ill.), followed by appropriate dilutions. The formulations were prepared fresh before dosing.
# AmB and AME were also tested for comparison. For AmB, the commercially available FUNGIZONE (Bristol-Meyers Squibb Co.) was used. Reported values are based upon the weight of the AmB active ingredient, not on the basis of the weight of the FUNGIZONE powder. AME was formulated in OSMITROL as described for the test compounds.
# Various polyene macrolide amide derivatives of the invention were evaluated to characterize their potential toxicity when administered subchronically by intravenous injection.
# CD-1® mice (Charles River Laboratories, Portage, Mich.) were acclimated to laboratory conditions for at least 5 days before the start of dosing. During the acclimation period, the general condition of the mice was evaluated, and those considered healthy were used. The mice were randomly assigned to treatment groups using a stratified body weight regimen. Each treatment group consisted of 3 male and 3 female mice. The mice were housed in a room with a controlled environment and provided rodent chow and water ad libitum.
# On the first day of dosing, the mice were approximately 7 to 9 weeks old and weighed 22 to 30 g. Doses were administered by intravenous injection once daily on study days 1 to 5 and 8 to 12. Dosages were selected based upon data from efficacy and toxicology studies, and ranged from 1.25 to 30 mg/kg/day. Clinical observations were recorded 0.5 hr after dosing on days 1, 3, 5, 8, 10, 12 and 15, and on any day a change was observed. Body weights were recorded prior to dosing and on study days 8 and 12, and on study day 15 at the completion of the in-life phase of the study.
# Animals that were found in a moribund/deteriorating clinical state were euthanized (animal designated killed in extremis) by inhalation of CO2. The day of death for any animal found dead or killed in extremis was recorded. Any animal that died prematurely was removed from the study without further processing.
# One day after completion of dosing (study day 16), all surviving mice were euthanized by inhalation of CO2. Their kidneys were preserved for histopathologic examination. The maximum no-observed-adverse-effect level (NOAEL) was determined on the basis of clinical and histopathologic findings. The values for AmB and AME are provided for comparison.
compound,measurement,setting,value
"C[C@@H]1[C@H](O)[C@@H](C)/C=C/C=C/C=C/C=C/C=C/C=C/C=C/[C@H](O[C@@H]2O[C@H](C)[C@@H](O)[C@H](N)[C@@H]2O)C[C@@H]2O[C@](O)(C[C@@H](O)C[C@@H](O)[C@H](O)CC[C@@H](O)C[C@@H](O)CC(=O)O[C@H]1C)C[C@H](O)[C@H]2C(=O)O [AMB, amphotericin B, reference compound]",MIC,[1],0.125 to 0.25 µg/mL
same,NLD acute mice,[2],1.5 mg/kg
same,NOAEL at 2 week,"[3]; clinical findings, read-out: NOAEL 2 week mice clinical",0.5 mg/kg
same,NOAEL at 2 week,"[3]; histopathologic (kidney) findings, read-out: NOAEL 2 week mice histological",0.85 mg/kg
